Laboratory results published in publication PMC3662613 (Chemmedchem, 2013).
Like-named read-outs stand apart in the source and are kept apart here.

Assays:
[1] = molecular target: p97 ATPase (Homo sapiens, UniProt P55072); assay: p97 ATPase assay; assay type: biochemical; settings: triplicate, mean ±SD
[2] = tested on: ODD-Luc (p97-independent proteasome substrate); assay: ODD-Luc reporter degradation assay, dual reporter HeLa cell line; assay type: cell-based; settings: Homo sapiens, read-out: IC50 ODD-Luc
[3] = tested on: HCT15; assay: Cytotoxicity / antiproliferative activity; assay type: cell-based; settings: Homo sapiens
[4] = tested on: SW403; assay: Cytotoxicity / antiproliferative activity; assay type: cell-based; settings: Homo sapiens
[5] = tested on: Ub^G76V–GFP (p97-dependent reporter); assay: Ub^G76V–GFP reporter degradation assay, dual reporter HeLa cell line; assay type: cell-based; settings: read-out: IC50 Ub^G76V–GFP, triplicate, mean ±SD
[6] = tested on: ∼170 kinases; assay: KiNativ kinase profiling, whole panel, PC3 cell lysate; assay type: binding, Homo sapiens; settings: 20 μM
[7] = tested on: HMEC, PHMLEB, PHMLER cells; assay: Cellular viability; assay type: cell-based, human; settings: 24 h, CellTiter-Glo
[8] = tested on: ubiquitin conjugates; assay: Ubiquitin conjugate accumulation immunoblot, SW403 cells; settings: 5–10 μM; nuclear plus membrane and cytosolic compartments
[9] = HCT-15, 24 h, read-out: Cytotoxicity GI50 HCT15 24 h
[10] = HCT-15, 72 h, read-out: Cytotoxicity GI50 HCT15 72 h
[11] = SW-403, 24 h, read-out: Cytotoxicity GI50 SW403 24 h
[12] = SW-403, 72 h, read-out: Cytotoxicity GI50 SW403 72 h

p97 ATPase, sequence (P55072 whole entry): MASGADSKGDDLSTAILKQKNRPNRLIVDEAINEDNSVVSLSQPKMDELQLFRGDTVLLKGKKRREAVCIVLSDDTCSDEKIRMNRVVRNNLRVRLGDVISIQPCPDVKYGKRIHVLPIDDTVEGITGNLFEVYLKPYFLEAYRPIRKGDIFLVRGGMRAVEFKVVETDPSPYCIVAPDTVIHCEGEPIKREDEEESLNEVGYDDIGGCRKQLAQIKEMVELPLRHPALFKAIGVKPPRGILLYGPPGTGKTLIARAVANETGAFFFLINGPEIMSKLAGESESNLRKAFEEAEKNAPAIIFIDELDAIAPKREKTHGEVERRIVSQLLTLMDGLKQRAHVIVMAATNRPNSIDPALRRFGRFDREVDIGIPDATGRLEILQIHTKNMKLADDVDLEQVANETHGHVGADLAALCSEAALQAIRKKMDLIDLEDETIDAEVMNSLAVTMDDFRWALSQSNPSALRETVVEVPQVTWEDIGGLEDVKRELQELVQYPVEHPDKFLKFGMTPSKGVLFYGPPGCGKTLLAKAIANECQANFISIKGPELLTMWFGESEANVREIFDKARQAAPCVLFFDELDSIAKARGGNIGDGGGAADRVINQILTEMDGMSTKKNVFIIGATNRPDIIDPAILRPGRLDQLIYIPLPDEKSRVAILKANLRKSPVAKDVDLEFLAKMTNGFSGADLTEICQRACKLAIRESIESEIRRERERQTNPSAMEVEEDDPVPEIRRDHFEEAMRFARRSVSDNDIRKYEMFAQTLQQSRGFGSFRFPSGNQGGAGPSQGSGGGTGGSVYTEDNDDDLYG

| Compound | IC50 ([1]; IC50 ATPase) | IC50 [2] | GI50 [3, 9] | GI50 [3, 10] | GI50 [4, 11] | GI50 [4, 12] | further results |
| --- | --- | --- | --- | --- | --- | --- | --- |
| 2-(2-Amino-5-fluoro-1H-benzo[d]imidazol-1-yl)-N-benzyl-8-methoxyquinazolin-4-amine and 2-(2-Amino-6-fluoro-1H-benzo[d]imidazol-1-yl)-N-benzyl-8-methoxyquinazolin-4-amine [compound 30] | – | – | – | – | – | – | IC50 ([1]; read-out: IC50 ATPase): 80 ± 20 nM; IC50 [5]: 6.8 ± 1 µM |
| CCCCNc1ncc2c(-c3ccc(F)cc3)nn(C[C@H]3CC[C@H](N)CC3)c2n1 [pyrazolopyrimidine, reference compound] | – | – | – | – | – | – | number of protein kinases (domains) with >50% inhibition of labeling [6]: 56 |
| CO/C1=C\C(C)=C\[C@@H](C)[C@@H](O)[C@@H](C)C/C(C)=C/C=C/[C@H](OC)[C@@H]([C@@H](C)[C@@H](O)[C@H](C)[C@@]2(O)C[C@@H](O)[C@H](C)[C@@H](C(C)C)O2)OC1=O [bafilomycin, reference compound] | – | – | – | – | – | – | potency on normal vs immortalized and tumorigenic cell lines [7]: equal potency |
| COc1cccc2c(NCc3ccccc3)nc(NCc3ccccc3)nc12 [compound 14, N^2,N^4-Dibenzyl-8-methoxyquinazoline-2,4-diamine] | – | 6.5 ± 1.1 µM | 1.1 ± 0.3 µM | 0.8 ± 0.3 µM | 0.8 ± 0.3 µM | 0.5 ± 0.2 µM | – |
| COc1cccc2c(NCc3ccccc3)nc(-n3c(N)nc4c(F)cccc43)nc12 [compound 27, 2-(2-Amino-4-fluoro-1H-benzo[d]imidazol-1-yl)-N-benzyl-8-methoxyquinazolin-4-amine] | 43 ± 10 nM | – | – | – | – | – | – |
| CCCCOc1cccc2c(NCc3ccccc3)nc(N3CCOc4ccccc43)nc12 [compound 37, 2-(2H-Benzo[b][1,4]oxazin-4(3H)-yl)-N-benzyl-8-butoxyquinazolin-4-amine] | 2630 ± 700 nM | – | – | – | – | – | – |
| 2-(2-Amino-5-chloro-1H-benzo[d]imidazol-1-yl)-N-benzyl-8-methoxyquinazolin-4-amine and 2-(2-Amino-6-chloro-1H-benzo[d]imidazol-1-yl)-N-benzyl-8-methoxyquinazolin-4-amine [compound 23] | – | – | – | – | – | – | IC50 ([1]; read-out: IC50 ATPase): 700 ± 300 nM; IC50 [5]: 31 ± 7 µM |
| COCCOc1cccc2c(NCc3ccccc3)nc(N3CCOc4ccccc43)nc12 [compound 34, 2-(2H-Benzo[b][1,4]oxazin-4(3H)-yl)-N-benzyl-8-(2-methoxyethoxy)quinazolin-4-amine] | – | 27 ± 5 µM | 12 ± 4 µM | 9 ± 3 µM | 15 ± 7 µM | 7.9 ± 2.7 µM | – |
| 2-(2-Amino-5-methyl-1H-benzo[d]imidazol-1-yl)-N-benzyl-8-methoxyquinazolin-4-amine and 2-(2-Amino-6-methyl-1H-benzo[d]imidazol-1-yl)-N-benzyl-8-methoxyquinazolin-4-amine [compound 25] | – | – | – | – | – | – | IC50 ([1]; read-out: IC50 ATPase): 240 ± 60 nM; IC50 [5]: 2.5 ± 0.5 µM |
| c1ccc(CNc2nc(NCc3ccccc3)c3ccccc3n2)cc1 [DBeQ, N^2,N^4-dibenzylquinazoline-2,4-diamine] | 1600 nM | 56 ± 14 µM | 3.2 ± 1 µM | 1.8 ± 0.7 µM | 2.2 ± 0.6 µM | 1.4 ± 0.5 µM | potency on normal vs immortalized and tumorigenic cell lines [7]: slightly greater potency toward the immortalized and transformed cells; accumulation of ubiquitin conjugates [8]: caused accumulation of ubiquitin conjugates |
| 2-(2-Amino-5-bromo-1H-benzo[d]imidazol-1-yl)-N-benzyl-8-methoxyquinazolin-4-amine and 2-(2-Amino-6-bromo-1H-benzo[d]imidazol-1-yl)-N-benzyl-8-methoxyquinazolin-4-amine [compound 24] | – | – | – | – | – | – | IC50 ([1]; read-out: IC50 ATPase): 800 ± 300 nM; IC50 [5]: 30 ± 10 µM |
| CC(C)C[C@H](NC(=O)[C@H](Cc1ccccc1)NC(=O)c1cnccn1)B(O)O [bortezomib, reference compound] | – | – | – | – | – | – | potency on normal vs immortalized and tumorigenic cell lines [7]: equal potency |
| 2-(2-Amino-5-methoxy-1H-benzo[d]imidazol-1-yl)-N-benzyl-8-methoxyquinazolin-4-amine and 2-(2-Amino-6-methoxy-1H-benzo[d]imidazol-1-yl)-N-benzyl-8-methoxyquinazolin-4-amine [compound 26] | – | – | – | – | – | – | IC50 ([1]; read-out: IC50 ATPase): 480 ± 90 nM; IC50 [5]: 0.96 ± 0.2 µM |
| COc1cccc2c(NCc3ccccc3)nc(Nc3nc4ccccc4n3C)nc12 [compound 19, N^4-Benzyl-8-methoxy-N^2-(1-methyl-1H-benzo[d]imidazol-2-yl)quinazoline-2,4-diamine] | – | 10 ± 2 µM | 1.7 ± 0.8 µM | 1.4 ± 0.5 µM | 1.7 ± 0.7 µM | 1.4 ± 0.5 µM | – |
| c1ccc(CNc2nc(N3CCOc4ccccc43)nc3ccccc23)cc1 [compound 15, 2-(2H-Benzo[b][1,4]oxazin-4(3H)-yl)-N-benzylquinazolin-4-amine] | – | > 20 µM | 24 ± 3 µM | 10 ± 3 µM | 21 ± 5 µM | 13 ± 4 µM | – |

Second part, led by results:

| IC50 ([1]; IC50 ATPase) | IC50 [2] | Compound | GI50 [3, 9] | GI50 [3, 10] | GI50 [4, 11] | GI50 [4, 12] | further results |
| --- | --- | --- | --- | --- | --- | --- | --- |
| 400 ± 80 nM | – | N#CCOc1cccc2c(NCc3ccccc3)nc(N3CCOc4ccccc43)nc12 [compound 39, 2-((2-(2H-Benzo[b][1,4]oxazin-4(3H)-yl)-4-(benzylamino)quinazolin-8-yl)oxy)acetonitrile] | – | – | – | – | – |
| 45 ± 6 nM | – | COc1cccc2c(NCc3ccccc3)nc(-n3c(N)nc4c(C)cccc43)nc12 [compound 29, 2-(2-Amino-4-methyl-1H-benzo[d]imidazol-1-yl)-N-benzyl-8-methoxyquinazolin-4-amine] | – | – | – | – | – |
| 2600 ± 800 nM | – | c1ccc(Nc2nc(Nc3ccccc3)c3ccccc3n2)cc1 [compound 9, N^2,N^4-Diphenylquinazoline-2,4-diamine] | – | – | – | – | – |
| – | > 20 µM | OCCOc1cccc2c(NCc3ccccc3)nc(N3CCOc4ccccc43)nc12 [compound 33, 2-((2-(2H-Benzo[b][1,4]oxazin-4(3H)-yl)-4-(benzylamino)quinazolin-8-yl)oxy)ethanol] | 28 ± 3 µM | 17 ± 5 µM | 42 ± 9 µM | 9.4 ± 2.9 µM | – |
| – | > 20 µM | COc1cccc2c(NCc3ccc(F)cc3)nc(N3CCOc4ccccc43)nc12 [compound 40, 2-(2H-Benzo[b][1,4]oxazin-4(3H)-yl)-N-(4-fluorobenzyl)-8-methoxyquinazolin-4-amine] | 27 ± 4 µM | 8.9 ± 2.3 µM | 21 ± 6 µM | 9.4 ± 2.6 µM | – |
| – | 61 ± 6 µM | CCN(CC)CCOc1cccc2c(NCc3ccccc3)nc(N3CCOc4ccccc43)nc12 [compound 35, 2-(2H-Benzo[b][1,4]oxazin-4(3H)-yl)-N-benzyl-8-(2-(diethylamino)ethoxy)quinazolin-4-amine] | 13 ± 5 µM | 7.1 ± 2.5 µM | 11 ± 5 µM | 3.9 ± 1 µM | – |
| – | 17 ± 2 µM | c1ccc(CNc2nc(N3CCOc4ccccc43)nc3ccsc23)cc1 [compound 17, 2-(2H-Benzo[b][1,4]oxazin-4(3H)-yl)-N-benzylthieno[3,2-d]pyrimidin-4-amine] | 37 ± 7 µM | 16 ± 5 µM | 18 ± 10 µM | 9.7 ± 3.7 µM | – |
| 25000 ± 8000 nM | – | COc1cccc2c(NCc3ccccc3)nc(-n3c(N)nc4cc(Cl)c(Cl)cc43)nc12 [compound 21, 2-(2-Amino-5,6-dichloro-1H-benzo[d]imidazol-1-yl)-N-benzyl-8-methoxyquinazolin-4-amine] | – | – | – | – | – |
| 500 ± 100 nM | – | COc1cccc2c(NCc3ccccc3)nc(-n3c(N)nc4cccc(F)c43)nc12 [compound 28, 2-(2-Amino-7-fluoro-1H-benzo[d]imidazol-1-yl)-N-benzyl-8-methoxyquinazolin-4-amine] | – | – | – | – | – |
| – | > 20 µM | COc1cccc2c(NCc3ccccc3)nc(N3CCOc4ccccc43)nc12 [compound 38, 2-(2H-Benzo[b][1,4]oxazin-4(3H)-yl)-N-benzyl-8-methoxyquinazolin-4-amine] | 25 ± 5 µM | 12 ± 3 µM | 43 ± 11 µM | 13 ± 4 µM | – |
